Positions of bridges follow the written chain, without caps; N, C: chain ends. Non-standard residues stand in square brackets, D forms with d. Residues, ends and D or L forms follow the SMILES beside them. Bip(4'-COOH) = N[C@@H](Cc1ccc(-c2ccc(C(=O)O)cc2)cc1)C(=O)O; Bip(4'-NHAc) = CC(=O)Nc1ccc(-c2ccc(C[C@H](N)C(=O)O)cc2)cc1; Ala(morpholin-4-yl) = N[C@@H](CN1CCOCC1)C(=O)O; Phe(3-CONH2) = NC(=O)c1cccc(C[C@H](N)C(=O)O)c1; Bip = N[C@@H](Cc1ccc(-c2ccccc2)cc1)C(=O)O; NMeF = CN[C@@H](Cc1ccccc1)C(=O)O; 2Pal = N[C@@H](Cc1ccccn1)C(=O)O; 3Pal = N[C@@H](Cc1cccnc1)C(=O)O; 2Thi = N[C@@H](Cc1cccs1)C(=O)O; Cha = N[C@@H](CC1CCCCC1)C(=O)O; Chg = N[C@H](C(=O)O)C1CCCCC1; Aze = O=C(O)[C@@H]1CCN1; Sar = CNCC(=O)O
Target: TNFα (Homo sapiens, UniProt P01375)
Assay: TNF-Induced HEK-Blue Assay
Type: cell-based
Settings: HEK-Blue-CD40L cells, NF-kB-driven secreted alkaline phosphatase reporter; TNFα 0.5 ng/ml; 18 h; read-out: TNF induced HEK-Blue assay IC50 value

Chain of TNFα (P01375 77-233 limits assumed): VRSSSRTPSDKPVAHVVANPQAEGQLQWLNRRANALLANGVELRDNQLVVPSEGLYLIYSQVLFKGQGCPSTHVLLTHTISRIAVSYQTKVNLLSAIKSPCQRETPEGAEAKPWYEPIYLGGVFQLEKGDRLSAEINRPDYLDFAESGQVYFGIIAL

Row | Structure (SMILES) | IC50 [nM]
1 | CC(C)C[C@@H]1NC(=O)[C@H](Cc2ccccc2)N(C)C(=O)[C@H](C(C)C)NC(=O)[C@@H]2CCCN2C(=O)[C@H](C(C)C)NC(=O)[C@@H](CCCNC(=N)N)NC(=O)[C@H](CC(=O)O)NC(=O)[C@H](Cc2ccc(O)cc2)NC(=O)CN(C)C(=O)[C@H](Cc2ccc(-c3ccccc3)cc2)NC(=O)[C@H](Cc2ccc(-c3ccc(C(=O)O)cc3)cc2)NC(=O)[C@H](CN2CCOCC2)NC(=O)CSC[C@@H](C(=O)NCC(N)=O)NC1=O [Example 220] ({CH2CO}-[Ala(morpholin-4-yl)][Bip(4'-COOH)][Bip][Sar]YD[dR]VPV[NMeF]LCG-NH2; thioether N-13) | < 50
2 | CC(=O)Nc1ccc(-c2ccc(C[C@@H]3NC(=O)[C@H](Cc4ccc(-c5ccccc5)cc4)NC(=O)[C@H](CN4CCOCC4)NC(=O)CSC[C@@H](C(=O)NCC(N)=O)NC(=O)[C@H](CC(C)C)NC(=O)[C@H](Cc4ccc(O)cc4)NC(=O)[C@H](C(C)C)NC(=O)[C@@H]4CCN4C(=O)[C@H](C(C)C)NC(=O)[C@@H](CCCNC(=N)N)NC(=O)[C@H](CC(=O)O)NC(=O)[C@H](Cc4ccccc4)NC(=O)CN(C)C3=O)cc2)cc1 [Example 221] ({CH2CO}-[Ala(morpholin-4-yl)][Bip][Bip(4'-NHAc)][Sar]FD[dR]V[Aze]VYLCG-NH2; thioether N-13) | < 50
3 | CC(=O)Nc1ccc(-c2ccc(C[C@@H]3NC(=O)[C@H](Cc4ccc(-c5ccccc5)cc4)NC(=O)[C@H](CN4CCOCC4)NC(=O)CSC[C@@H](C(=O)NCC(N)=O)NC(=O)[C@H](CC(C)C)NC(=O)[C@H](Cc4ccccn4)NC(=O)[C@H](C(C)C)NC(=O)[C@@H]4CCCN4C(=O)[C@H](C(C)C)NC(=O)[C@@H](CCCNC(=N)N)NC(=O)[C@H](CC(=O)O)NC(=O)[C@H](Cc4ccc(O)cc4)NC(=O)CN(C)C3=O)cc2)cc1 [Example 222] ({CH2CO}-[Ala(morpholin-4-yl)][Bip][Bip(4'-NHAc)][Sar]YD[dR]VPV[2Pal]LCG-NH2; thioether N-13) | < 50
4 | CC(=O)Nc1ccc(-c2ccc(C[C@@H]3NC(=O)[C@H](Cc4ccc(-c5ccccc5)cc4)NC(=O)[C@H](CN4CCOCC4)NC(=O)CSC[C@@H](C(=O)NCC(N)=O)NC(=O)[C@H](CC(C)C)NC(=O)[C@H](Cc4cccnc4)NC(=O)[C@H](C(C)C)NC(=O)[C@@H]4CCCN4C(=O)[C@H](C(C)C)NC(=O)[C@@H](CCCNC(=N)N)NC(=O)[C@H](CC(=O)O)NC(=O)[C@H](Cc4ccc(O)cc4)NC(=O)CN(C)C3=O)cc2)cc1 [Example 223] ({CH2CO}-[Ala(morpholin-4-yl)][Bip][Bip(4'-NHAc)][Sar]YD[dR]VPV[3Pal]LCG-NH2; thioether N-13) | < 50
5 | CC(=O)Nc1ccc(-c2ccc(C[C@@H]3NC(=O)[C@H](Cc4ccc(-c5ccc(C(=O)O)cc5)cc4)NC(=O)[C@H](CN4CCOCC4)NC(=O)CSC[C@@H](C(=O)NCC(N)=O)NC(=O)[C@H](CC(C)C)NC(=O)[C@H](Cc4ccccc4)NC(=O)[C@H](C(C)C)NC(=O)[C@@H]4CCCN4C(=O)[C@H](C(C)C)NC(=O)[C@@H](CCCNC(=N)N)NC(=O)[C@H](CC(=O)O)NC(=O)[C@H](Cc4ccccc4)NC(=O)CN(C)C3=O)cc2)cc1 [Example 225] ({CH2CO}-[Ala(morpholin-4-yl)][Bip(4'-COOH)][Bip(4'-NHAc)][Sar]FD[dR]VPVFLCG-NH2; thioether N-13) | 50 to 200
6 | CC(=O)Nc1ccc(-c2ccc(C[C@@H]3NC(=O)[C@H](Cc4ccc(-c5ccc(C(=O)O)cc5)cc4)NC(=O)[C@H](CN4CCOCC4)NC(=O)CSC[C@@H](C(=O)NCC(N)=O)NC(=O)[C@H](CC(C)C)NC(=O)[C@H](CCCNC(=N)N)NC(=O)[C@H](C(C)C)NC(=O)[C@@H]4CCCN4C(=O)[C@H](CC(N)=O)NC(=O)[C@@H](CCCNC(=N)N)NC(=O)[C@H](CC(=O)O)NC(=O)[C@H](Cc4ccccn4)NC(=O)CN(C)C3=O)cc2)cc1 [Example 226] ({CH2CO}-[Ala(morpholin-4-yl)][Bip(4'-COOH)][Bip(4'-NHAc)][Sar][2Pal]D[dR]NPVRLCG-NH2; thioether N-13) | 50 to 200
7 | CC(=O)Nc1ccc(-c2ccc(C[C@@H]3NC(=O)[C@H](Cc4ccc(-c5ccccc5)cc4)NC(=O)[C@H](CN4CCOCC4)NC(=O)CSC[C@@H](C(=O)NCC(N)=O)NC(=O)[C@H](CC(C)C)NC(=O)[C@H](Cc4ccccc4)NC(=O)[C@H](C(C)C)NC(=O)[C@@H]4CCCN4C(=O)[C@H](C(C)C)NC(=O)[C@@H](CCCNC(=N)N)NC(=O)[C@H](CC(=O)O)NC(=O)[C@H](Cc4ccccn4)NC(=O)CN(C)C3=O)cc2)cc1 [Example 227] ({CH2CO}-[Ala(morpholin-4-yl)][Bip][Bip(4'-NHAc)][Sar][2Pal]D[dR]VPVFLCG-NH2; thioether N-13) | 50 to 200
8 | CC(=O)Nc1ccc(-c2ccc(C[C@@H]3NC(=O)[C@H](Cc4ccc(-c5ccccc5)cc4)NC(=O)[C@H](CN4CCOCC4)NC(=O)CSC[C@@H](C(=O)NCC(N)=O)NC(=O)[C@H](CC(C)C)NC(=O)[C@H](Cc4ccccn4)NC(=O)[C@H](C(C)C)NC(=O)[C@@H]4CCCN4C(=O)[C@H](C(C)C)NC(=O)[C@@H](CCCNC(=N)N)NC(=O)[C@H](CC(=O)O)NC(=O)[C@H](Cc4ccccc4)NC(=O)CN(C)C3=O)cc2)cc1 [Example 228] ({CH2CO}-[Ala(morpholin-4-yl)][Bip][Bip(4'-NHAc)][Sar]FD[dR]VPV[2Pal]LCG-NH2; thioether N-13) | < 50
9 | CC(C)C[C@@H]1NC(=O)[C@H](CCCNC(=N)N)NC(=O)[C@H](C(C)C)NC(=O)[C@@H]2CCCN2C(=O)[C@H](C(C)C)NC(=O)[C@@H](CCCNC(=N)N)NC(=O)[C@H](CC(=O)O)NC(=O)[C@H](Cc2cnc[nH]2)NC(=O)CN(C)C(=O)[C@H](Cc2ccc(-c3ccccc3)cc2)NC(=O)[C@H](Cc2ccc(-c3ccccc3)cc2)NC(=O)[C@H](CN2CCOCC2)NC(=O)CSC[C@@H](C(=O)NCC(N)=O)NC1=O [Example 229] ({CH2CO}-[Ala(morpholin-4-yl)][Bip][Bip][Sar]HD[dR]VPVRLCG-NH2; thioether N-13) | 50 to 200
10 | CC(C)C[C@@H]1NC(=O)[C@H](CCCNC(=N)N)NC(=O)[C@H](C2CCCCC2)NC(=O)[C@@H]2CCCN2C(=O)[C@H](C(C)C)NC(=O)[C@@H](CCCNC(=N)N)NC(=O)[C@H](CC(=O)O)NC(=O)[C@H](Cc2cnc[nH]2)NC(=O)CN(C)C(=O)[C@H](Cc2ccc(-c3ccccc3)cc2)NC(=O)[C@H](Cc2ccc(-c3ccccc3)cc2)NC(=O)[C@H](CN2CCOCC2)NC(=O)CSC[C@@H](C(=O)NCC(N)=O)NC1=O [Example 230] ({CH2CO}-[Ala(morpholin-4-yl)][Bip][Bip][Sar]HD[dR]VP[Chg]RLCG-NH2; thioether N-13) | 50 to 200
11 | CC(C)C[C@@H]1NC(=O)[C@H](Cc2ccccc2)NC(=O)[C@H](C(C)C)NC(=O)[C@@H]2CCCN2C(=O)[C@H](C(C)C)NC(=O)[C@@H](CCCNC(=N)N)NC(=O)[C@H](CC(=O)O)NC(=O)[C@H](Cc2cnc[nH]2)NC(=O)CN(C)C(=O)[C@H](Cc2ccc(-c3ccccc3)cc2)NC(=O)[C@H](Cc2ccc(-c3ccccc3)cc2)NC(=O)[C@H](CN2CCOCC2)NC(=O)CSC[C@@H](C(=O)NCC(N)=O)NC1=O [Example 231] ({CH2CO}-[Ala(morpholin-4-yl)][Bip][Bip][Sar]HD[dR]VPVFLCG-NH2; thioether N-13) | 50 to 200
12 | CC(=O)Nc1ccc(-c2ccc(C[C@@H]3NC(=O)[C@H](Cc4ccc(-c5ccccc5)cc4)NC(=O)[C@H](CN4CCOCC4)NC(=O)CSC[C@@H](C(=O)NCC(N)=O)NC(=O)[C@H](CC(C)C)NC(=O)[C@H](CCCNC(=N)N)NC(=O)[C@H](C4CCCCC4)NC(=O)[C@@H]4CCCN4C(=O)[C@H](C(C)C)NC(=O)[C@@H](CCCNC(=N)N)NC(=O)[C@H](CC(=O)O)NC(=O)[C@H](Cc4cnc[nH]4)NC(=O)CN(C)C3=O)cc2)cc1 [Example 232] ({CH2CO}-[Ala(morpholin-4-yl)][Bip][Bip(4'-NHAc)][Sar]HD[dR]VP[Chg]RLCG-NH2; thioether N-13) | < 50
13 | CC(=O)Nc1ccc(-c2ccc(C[C@@H]3NC(=O)[C@H](Cc4ccc(-c5ccccc5)cc4)NC(=O)[C@H](CC4CCCCC4)NC(=O)CSC[C@@H](C(=O)NCC(N)=O)NC(=O)[C@H](CC(C)C)NC(=O)[C@H](Cc4cccc(C(N)=O)c4)NC(=O)[C@H](C(C)C)NC(=O)[C@@H]4CCCN4C(=O)[C@H](C(C)C)NC(=O)[C@@H](CCCNC(=N)N)NC(=O)[C@H](CC(=O)O)NC(=O)[C@H](Cc4ccccn4)NC(=O)CN(C)C3=O)cc2)cc1 [Example 233] ({CH2CO}-[Cha][Bip][Bip(4'-NHAc)][Sar][2Pal]D[dR]VPV[Phe(3-CONH2)]LCG-NH2; thioether N-13) | < 50
14 | CC(=O)Nc1ccc(-c2ccc(C[C@@H]3NC(=O)[C@H](Cc4ccc(-c5ccc(C(=O)O)cc5)cc4)NC(=O)[C@H](CC4CCCCC4)NC(=O)CSC[C@@H](C(=O)NCC(N)=O)NC(=O)[C@H](CC(C)C)NC(=O)[C@H](Cc4cnc[nH]4)NC(=O)[C@H](C(C)C)NC(=O)[C@@H]4CCCN4C(=O)[C@H](C(C)C)NC(=O)[C@@H](CCCNC(=N)N)NC(=O)[C@H](CC(=O)O)NC(=O)[C@H](Cc4cnc[nH]4)NC(=O)CN(C)C3=O)cc2)cc1 [Example 234] ({CH2CO}-[Cha][Bip(4'-COOH)][Bip(4'-NHAc)][Sar]HD[dR]VPVHLCG-NH2; thioether N-13) | < 50
15 | CC(=O)Nc1ccc(-c2ccc(C[C@@H]3NC(=O)[C@H](Cc4ccc(-c5ccccc5)cc4)NC(=O)[C@H](CC4CCCCC4)NC(=O)CSC[C@@H](C(=O)NCC(N)=O)NC(=O)[C@H](CC(C)C)NC(=O)[C@H](Cc4cccs4)NC(=O)[C@H](C(C)C)NC(=O)[C@@H]4CCCN4C(=O)[C@H](C(C)C)NC(=O)[C@@H](CCCNC(=N)N)NC(=O)[C@H](CC(=O)O)NC(=O)[C@H](Cc4ccccn4)NC(=O)CN(C)C3=O)cc2)cc1 [Example 235] ({CH2CO}-[Cha][Bip][Bip(4'-NHAc)][Sar][2Pal]D[dR]VPV[2Thi]LCG-NH2; thioether N-13) | 200 to 2000
16 | CC(=O)Nc1ccc(-c2ccc(C[C@@H]3NC(=O)[C@H](Cc4ccc(-c5ccc(C(=O)O)cc5)cc4)NC(=O)[C@H](CN4CCOCC4)NC(=O)CSC[C@@H](C(=O)NCC(N)=O)NC(=O)[C@H](CC(C)C)NC(=O)[C@H](Cc4ccc(O)cc4)NC(=O)[C@H](C(C)C)NC(=O)[C@@H]4CCCN4C(=O)[C@H](C(C)C)NC(=O)[C@@H](CCCNC(=N)N)NC(=O)[C@H](CC(=O)O)NC(=O)[C@@H]4CCCN4C(=O)CN(C)C3=O)cc2)cc1 [Example 236] ({CH2CO}-[Ala(morpholin-4-yl)][Bip(4'-COOH)][Bip(4'-NHAc)][Sar]PD[dR]VPVYLCG-NH2; thioether N-13) | 200 to 2000

— patent US20250145665A1, “MACROCYCLIC PEPTIDES USEFUL AS MODULATORS OF TNF ALPHA” (Bristol-Myers Squibb Company, priority 2023, published 2025)
